# Measured values taken from US20240376514A1, “BACTERIAL BIOSENSORS FOR MONITORING AND DETECTION OF NAPHTHENIC ACIDS IN THE ENVIRONMENT” (THE GOVERNORS OF ATHABASCA UNIVERSITY, priority 2021, published 2024).
# Columns and labels:
# [1] = system: atu operon; details: stated as known; cited from earlier work
# [2] = system: atuA; test: atuA promoter-luxCDABE biosensor gene expression; format: cell-based; details: Pseudomonas OST1909
# Protocol: Routine microbiology and gene expression assays using 96 well plates were performed to grow the biosensor strains in the presence of environmental water samples, and the light output from the biosensor was used as a proxy to indicate the concentration of naphthenic acids in the water.
# In the fourth step, all plasmid-encoded genetic circuits were introduced back into Pseudomonas OST1909 for validation.
# “SIGMA” and “Acros” indicate two sources of primarily acyclic NA mixtures. […] A post hoc Tukey HSD test was conducted with each compound and mixture to test significant relationships between each group (α=0.05, n=3).
Structure (SMILES),induction of atu genes in Pseudomonas aeruginosa by acyclic terpenes [1],induction of the atu operon / atu genes [2]
CC(C)=CCCC(C)CCO (centres unmarked) [citronellol],induced,do not induce
CC(C)=CCCC(C)CC(=O)O (centres unmarked) [citronellic acid],–,induce expression
CC(C)=CCC/C(C)=C/CO [geraniol],induced,do not induce
